Results from patent US11596639B2, “Substituted indole Mcl-1 inhibitors” (Vanderbilt University, priority 2016, dated 2023).

Target: Mcl-1 (Homo sapiens (Human), UniProt Q07820)
Experiment: Fluorescence polarization anisotropy (FPA) competition assay, FITC-Bak or FITC-Bim BH3 peptide
Type: binding
Conditions: read-out: Ki for Inhibition of Mcl-1 by FPA assay

Sequence of Mcl-1 (Q07820 172-327): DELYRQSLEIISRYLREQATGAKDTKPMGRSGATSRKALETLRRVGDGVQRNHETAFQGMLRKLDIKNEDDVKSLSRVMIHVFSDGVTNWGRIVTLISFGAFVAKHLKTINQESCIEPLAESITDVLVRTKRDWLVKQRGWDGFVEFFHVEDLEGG

## Cc1cc(OCCCc2c3n(c4c(-c5c(C)nn(C)c5C)c(Cl)ccc24)CCCN(c2cc(C(=O)O)c4cnn(CCO)c4c2)C3=O)cc(C)c1Cl [Example 107, 6-[8-Chloro-11-[3-(4-chloro-3,5-dimethyl-phenoxy)propyl]-1-oxo-7-(1,3,5-trimethylpyrazol-4-yl)-4,5-dihydro-3H-[1,4]diazepino[1,2-a]indol-2-yl]-1-(2-hydroxyethyl)indazole-4-carboxylic acid]
  Ki: < 1 nM

## Cc1cc(OCCCc2c3n(c4c(-c5c(C)nn(C)c5C)c(Cl)ccc24)[C@H](C)CN(c2ccc(F)c4cc[nH]c24)C3=O)cc(C)c1Cl [Example 446, (R)-7-Chloro-10-(3-(4-chloro-3,5-dimethylphenoxy)propyl)-2-(4-fluoro-1H-indol-7-yl)-4-methyl-6-(1,3,5-trimethyl-1H-pyrazol-4-yl)-3,4-dihydropyrazino[1,2-a]indol-1(2H)-one]
  Ki: 8.2 nM

## Cc1cc(OCCCc2c3n(c4c(-c5c(C)nn(C)c5C)c(Cl)ccc24)[C@H](C)CN(c2ccc(C(=O)O)c(Cl)c2)C3=O)cc(C)c1Cl [Example 35, (R)-2-chloro-4-(7-chloro-10-(3-(4-chloro-3,5-dimethylphenoxy)propyl)-4-methyl-1-oxo-6-(1,3,5-trimethyl-1H-pyrazol-4-yl)-3,4-dihydropyrazino[1,2-a]indol-2(1H)-yl)benzoic acid]
  Ki: 1.5 nM

## Cc1cc(OCCCc2c(C(=O)N(C)c3cccc(C(=O)O)c3)n(CCN3CCOCC3)c3c(-c4c(C)nn(C)c4C)c(Cl)ccc23)cc(C)c1Cl [Example 730, 3-[[6-chloro-3-[3-(4-chloro-3,5-dimethyl-phenoxy)propyl]-1-(2-morpholinoethyl)-7-(1,3,5-trimethylpyrazol-4-yl)indole-2-carbonyl]-methyl-amino]benzoic acid]
  Ki: 20 nM

## Cc1cc(OCCCc2c3n(c4c(-c5c(C)nn(C)c5C)c(Cl)ccc24)[C@H](C)CN(c2cccc4c2cc(C(=O)O)n4CCN2CCCC2)C3=O)cc(C)c1Cl [Example 369, (R)-4-(7-Chloro-10-(3-(4-chloro-3,5-dimethylphenoxy)propyl)-4-methyl-1-oxo-6-(1,3,5-trimethyl-1H-pyrazol-4-yl)-3,4-dihydropyrazino[1,2-a]indol-2(1H)-yl)-1-(2-(pyrrolidin-1-yl)ethyl)-1H-indole-2-carboxylic acid]
  Ki: 3.2 nM

## COCCCc1c2n(c3c(-c4c(C)nn(C)c4C)c(Cl)ccc13)[C@H](C)CN(c1cn(C)c3ccc(C(=O)O)cc13)C2=O [Example 406, (R)-3-(7-Chloro-10-(3-methoxypropyl)-4-methyl-1-oxo-6-(1,3,5-trimethyl-1H-pyrazol-4-yl)-3,4-dihydropyrazino[1,2-a]indol-2(1H)-yl)-1-methyl-1H-indole-5-carboxylic acid]
  Ki: > 250 nM

## Cc1cc(OCCCc2c(C(=O)NCc3cccc(C(=O)O)c3)[nH]c3c(-c4c(C)ncnc4C)c(Cl)ccc23)cc(C)c1Cl [Example 748, 3-[[[6-Chloro-3-[3-(4-chloro-3,5-dimethyl-phenoxy)propyl]-7-(4,6-dimethylpyrimidin-5-yl)-1H-indole-2-carbonyl]amino]methyl]benzoic acid]
  Ki: 6.3 nM

## CCN1C(=O)COc2cc(C(=O)O)cc(N3C[C@@H](C)n4c(c(CCCOc5cc(C)c(Cl)c(C)c5)c5ccc(Cl)c(-c6c(C)nn(C)c6C)c54)C3=O)c21 [Example 90, (R)-5-(7-chloro-10-(3-(4-chloro-3,5-dimethylphenoxy)propyl)-4-methyl-1-oxo-6-(1,3,5-trimethyl-1H-pyrazol-4-yl)-3,4-dihydropyrazino[1,2-a]indol-2(1H)-yl)-4-ethyl-3-oxo-3,4-dihydro-2H-benzo[b][1,4]oxazine-7-carboxylic acid]
  Ki: 8.7 nM

## Cc1cc(OCCCc2c(C(=O)N3CCN(c4cccc(C(=O)O)c4)CC3)n(Cc3cccnc3)c3c(-c4c(C)nn(C)c4C)c(Cl)ccc23)cc(C)c1Cl [Example 735, 3-(4-(6-chloro-3-(3-(4-chloro-3,5-dimethylphenoxy)propyl)-1-(pyridin-3-ylmethyl)-7-(1,3,5-trimethyl-1H-pyrazol-4-yl)-1H-indole-2-carbonyl)piperazin-1-yl)benzoic acid]
  Ki: 52 nM

## Cc1cc(OCCCc2c(C(=O)NC3CCC(C(=O)O)CC3)[nH]c3c(-c4c(C)ncnc4C)c(Cl)ccc23)cc(C)c1Cl (single isomer, unassigned) [Example 747, 4-(6-Chloro-3-(3-(4-chloro-3,5-dimethylphenoxy)propyl)-7-(4,6-dimethylpyrimidin-5-yl)-1H-indole-2-carboxamido)cyclohexane-1-carboxylic acid]
  Ki: 16 nM

## Cc1cc(OCCCc2c3n(c4c(-c5c(C)nn(C)c5C)c(Cl)ccc24)[C@H](C)CN(c2ccc4c(C(=O)O)nn(C)c4c2)C3=O)cc(C)c1Cl [Example 121, (R)-6-(7-Chloro-10-(3-(4-chloro-3,5-dimethylphenoxy)propyl)-4-methyl-1-oxo-6-(1,3,5-trimethyl-1H-pyrazol-4-yl)-3,4-dihydropyrazino[1,2-a]indol-2(1H)-yl)-1-methyl-1H-indazole-3-carboxylic acid]
  Ki: 1.9 nM

## Cc1cc(OCCCc2c3n(c4c(-c5c(C)nn(C)c5C)c(Cl)ccc24)CCCN(Cc2cc(C(=O)O)cc(N4CCN(C(=O)OC(C)(C)C)CC4)n2)C3=O)cc(C)c1Cl [Example 8, 2-(4-(Tert-butoxycarbonyl)piperazin-1-yl)-6-((8-chloro-11-(3-(4-chloro-3,5-dimethylphenoxy)propyl)-1-oxo-7-(1,3,5-trimethyl-1H-pyrazol-4-yl)-4,5-dihydro-1H-[1,4]diazepino[1,2-a]indol-2(3H)-yl)methyl)isonicotinic acid]
  Ki: 27 nM

## Cc1cc(OCCCc2c3n(c4c(-c5c(C)nn(C)c5C)c(Cl)ccc24)[C@H](C)CN(c2cnc4ccc(C(=O)O)cn24)C3=O)cc(C)c1Cl [Example 473, (R)-3-(7-chloro-10-(3-(4-chloro-3,5-dimethylphenoxy)propyl)-4-methyl-1-oxo-6-(1,3,5-trimethyl-1H-pyrazol-4-yl)-3,4-dihydropyrazino[1,2-a]indol-2(1H)-yl)imidazo[1,2-a]pyridine-6-carboxylic acid]
  Ki: 4.1 nM

## Cc1cc(OCCCc2c3n(c4c(-c5c(C)nn(CC(=O)O)c5C)c(Cl)ccc24)CCCN(c2ccccc2)C3=O)cc(C)c1Cl [Example 136, 2-(4-(8-Chloro-11-(3-(4-chloro-3,5-dimethylphenoxy)propyl)-1-oxo-2-phenyl-2,3,4,5-tetrahydro-1H-[1,4]diazepino[1,2-a]indol-7-yl)-3,5-dimethyl-1H-pyrazol-1-yl)acetic acid]
  Ki: < 1 nM

## Cc1cc(OCCCc2c3n(c4c(-c5c(C)cccc5C)c(Cl)ccc24)CCCNC3=O)cc(C)c1Cl [Example 86, 8-Chloro-11-(3-(4-chloro-3,5-dimethylphenoxy)propyl)-7-(2,6-dimethylphenyl)-2,3,4,5-tetrahydro-1H-[1,4]diazepino[1,2-a]indol-1-one]
  Ki: 47 nM

## Cc1cc(OCCCc2c3n(c4c(-c5c(C)nn(C)c5C)c(Cl)ccc24)CCCN(Cc2cc(C(=O)O)cc(N4CCN(C(=O)N(C)C)CC4)n2)C3=O)cc(C)c1Cl [Example 34, 2-((8-Chloro-11-(3-(4-chloro-3,5-dimethylphenoxy)propyl)-1-oxo-7-(1,3,5-trimethyl-1H-pyrazol-4-yl)-4,5-dihydro-1H-[1,4]diazepino[1,2-a]indol-2(3H)-yl)methyl)-6-(4-(dimethylcarbamoyl)piperazin-1-yl)isonicotinic acid]
  Ki: 12 nM

## Cc1cc(OCCCc2c3n(c4c(-c5c(C)nn(C)c5C)c(Cl)ccc24)[C@H](C)CN(c2cccc4c2c(C(=O)O)nn4C)C3=O)cc(C)c1Cl [Example 127, 4-[(4R)-7-chloro-10-[3-(4-chloro-3,5-dimethyl-phenoxy)propyl]-4-methyl-1-oxo-6-(1,3,5-trimethylpyrazol-4-yl)-3,4-dihydropyrazino[1,2-a]indol-2-yl]-1-methyl-indazole-3-carboxylic acid]
  Ki: < 1 nM

## Cc1cc(OCCCc2c3n(c4c(-c5c(C)nn(C)c5C)c(Cl)ccc24)[C@H](C)CN(c2cn(C)c4ccc(-c5nnc(-c6ccccc6)o5)cc24)C3=O)cc(C)c1Cl [Example 421, (R)-7-chloro-10-(3-(4-chloro-3,5-dimethylphenoxy)propyl)-4-methyl-2-(1-methyl-5-(5-phenyl-1,3,4-oxadiazol-2-yl)-1H-indol-3-yl)-6-(1,3,5-trimethyl-1H-pyrazol-4-yl)-3,4-dihydropyrazino[1,2-a]indol-1(2H)-one]
  Ki: 3.4 nM

## Cc1cc(OCCCc2c(C(=O)N(C)c3ccc(C(=O)O)cc3)n(CCN3CCOCC3)c3c(-c4c(C)nn(C)c4C)c(Cl)ccc23)cc(C)c1Cl [Example 731, 4-[[6-Chloro-3-[3-(4-chloro-3,5-dimethyl-phenoxy)propyl]-1-(2-morpholinoethyl)-7-(1,3,5-trimethylpyrazol-4-yl)indole-2-carbonyl]-methyl-amino]benzoic acid]
  Ki: > 200 nM

## Cc1cc(OCCCc2c3n(c4c(-c5c(C)nn(C)c5C)c(Cl)ccc24)[C@H](C)CN(c2cccc4cc(C(=O)O)n(CC5CCN(C)C5)c24)C3=O)cc(C)c1Cl (stereo partly drawn) [Example 320, 7-((R)-7-Chloro-10-(3-(4-chloro-3,5-dimethylphenoxy)propyl)-4-methyl-1-oxo-6-(1,3,5-trimethyl-1H-pyrazol-4-yl)-3,4-dihydropyrazino[1,2-a]indol-2(1H)-yl)-1-((1-methylpyrrolidin-3-yl)methyl)-1H-indole-2-carboxylic acid]
  Ki: 2.7 nM

## Cc1cc(OCCCc2c3n(c4c(-c5c(C)nn(C)c5C)c(Cl)ccc24)[C@H](C)CN(c2cn(C)c4ccc(C(F)(F)F)cc24)C3=O)cc(C)c1Cl (single isomer, unassigned) [Example 200]
  Ki: 6.6 nM

## COc1ccc(N2C[C@@H](C)n3c(c(CCCOc4cc(C)c(Cl)c(C)c4)c4ccc(Cl)c(-c5c(C)nn(C)c5C)c43)C2=O)c2c1c(C)c(C(=O)O)n2C [Example 351, (R)-7-(7-Chloro-10-(3-(4-chloro-3,5-dimethylphenoxy)propyl)-4-methyl-1-oxo-6-(1,3,5-trimethyl-1H-pyrazol-4-yl)-3,4-dihydropyrazino[1,2-a]indol-2(1H)-yl)-4-methoxy-1,3-dimethyl-1H-indole-2-carboxylic acid]
  Ki: < 1 nM
